From US5059590A, “Imidazole derivatives, process for production thereof, and use thereof” (Yamasa Shoyu Kabushiki Kaisha, priority 1988, dated 1991)
Values after ≈ are worked out from the molar mass of the structure shown.

How the values were obtained:
PC-3 = experiment: In vitro anti-proliferative activity against human tumor cell lines (PC-3); type: cell-based; details: PC-3, Prostate adenocarcinoma, 72 hours
Procedure: (§1) In vitro anti-proliferative activity against human tumor cell lines
(§2) Test Compound: 5-ethynyl-1-β-D-ribofuranosylimidazole-4-carboxamide
(§3) A variety of human tumor cell lines are suspended in media specified according to the species of the cell lines to predetermined cell concentrations as shown in the following Table.
(§4) 1 ml of the resulting cell suspension is seeded into each well of a 24 multi-well plate and incubated in a 5% CO2 -incubator at 37° C. for 24 hours. The culture medium is then replaced by a medium containing no test compound or by an appropriate amount of a serially diluted test compound solution. […] The number of the cells in each well is counted with a Coulter counter (Model ZB, Coulter Electronics), and the growth inhibition percent (%) of the cells at each concentration of a test compound is determined by the following equation: [formula] Tx: Number of the cells in a well containing a test compound as counted upon completion of the incubation (cells/ml) […] Cx: Number of the cells in a well containing no test compound as counted upon completion of the incubation (cells/ml)
(§5) Co: Number of the cells in a well containing no test compound as counted at the initiation of the incubation (cells/ml) […]

U-2OS = experiment: In vitro anti-proliferative activity against human tumor cell lines (U-2OS); type: cell-based; details: U2OS, Osteogenic sarcoma, 72 hours
Procedure: as §1, §2, §3, §4, §5

[1] = system: human gastric cancer cells, 4-1ST; experiment: In vivo antitumor activity against human gastric cancer cells, 4-1ST, subcutaneously implanted into nude mice; details: for Body weight / T/C (%) / Tumor growth rate (Rt): 125 mg/kg i.v. days 10, 14, 18
Procedure: In vivo antitumor activity against human gastric cancer cells, 4-1ST, subcutaneously implanted into nude mice
Human gastric cancer cells, 4-1ST(ca. 8 mm^3), are subcutaneously implanted at the ventral site of nude mice (BALB/c-nu/nu, female, 5 weeks old). Ten days after the implantation when the tumor volume reaches 150 to 300 mm^3, the mice are divided into groups (6 mice/group), and the treatment with a test drug was started.
5-Ethynyl-1-β-D-ribofuranosylimidazole-4-carboxamide is dissolved in distilled water and intravenously administered to the mice at a dose of 125 mg/kg on days 10, 14 and 18 after the implantation of the tumor, the volume of the drug solution being 0.1 ml per 10 g of the body weight of the mouse.
Each mouse is weighed, and width (a mm) and length (b mm) of the tumor thereof are measured twice a week to determine the tumor volume (A mm^3) from the following equation: […]
Subsequently, the tumor growth rate (R) is determined as follows on the basis of the tumor volume (A10) on day 10 after the implantation of the tumor cells:
R: Tumor growth rate after a predetermined period from the tumor implantation
A: Tumor volume after a predetermined period from the tumor implantation
A10 : Tumor volume as determined 10 days after the tumor implantation
T/C (%) is further obtained from the following equation by comparison between the tumor growth rate in the test group (Rt) and that in the control group (Rc):
Test group: 125 mg/kg of the drug was intravenously administered on days
10, 14 and 18 after the tumor implantation.

MG-63 = experiment: In vitro anti-proliferative activity against human tumor cell lines (MG-63); type: cell-based; details: MG-63, Osteogenic sarcoma, 72 hours
Procedure: as §1, §2, §3, §4, §5

mouse sarcoma 180 = experiment: In vitro anti-proliferative activity against mouse tumor cell lines, Test Method 2 (sarcoma 180); type: cell-based; details: Sarcoma 180, 48 hours, 37° C.
Procedure: (§6) In vitro anti-proliferative activity against mouse tumor cell lines
(§7) 1. Mouse lymphoma cell line P388 or mouse sarcoma 180 is suspended in RPMI1640 medium supplemented with 10% fetal bovine serum and 2 μM 2-hydroxyethyl disulfide to a concentration of 10^5 cells/ml. Test compounds are serially diluted with the same medium.
(§8) 2. 0.5 ml of the cell suspension thus obtained is admixed with 0.5 ml of the medium or the test compound solution, and the mixture is incubated in a 5% CO2 -incubator at 37° C. for 48 hours. The incubation is carried out in glass culture tubes.
(§9) 3. At the end of incubation, the number of the cells in each tube is counted with a Coulter counter (Model ZB, Coulter Electronics), and the growth inhibition percent (%) is calculated from the same equation as in Test Method 1.
(§10) 4. The IC50 value is obtained as in Test Method I.

[2] = system: Mouse lymphoma cell line P388; experiment: In vitro anti-proliferative activity against mouse tumor cell lines, Test Method 2 (P388); type: cell-based; details: P388, 48 hours, 37° C.
Procedure: as §6, §7, §8, §9, §10

PANC-1 = experiment: In vitro anti-proliferative activity against human tumor cell lines (PANC-1); type: cell-based; details: PANC-1, Pancreatic carcinoma, 72 hours
Procedure: as §1, §2, §3, §4, §5

KU-2 = experiment: In vitro anti-proliferative activity against human tumor cell lines (KU-2); type: cell-based; details: KU-2, Renal cell carcinoma, 72 hours
Procedure: as §1, §2, §3, §4, §5

[3] = system: L1210 mouse leukemia cells; experiment: In vitro anti-proliferative activity against mouse tumor cell lines, Test Method 1 (L1210); type: cell-based; details: L1210, 48 hours, 37° C.
Procedure: as §6
1. L1210 mouse leukemia cells are cultivated in RPMI1640 medium supplemented with 10% fetal bovine serum, and the resultant cells are diluted with the same medium in the logarithmic growth phase to a concentration of 1.6×10^5 cells/ml.
2. To test tubes each containing 0.9 ml of the above obtained diluted cell suspension is added 0.1 ml each of test solutions serially diluted with a culture medium or phosphate-buffered saline (PBS), and the mixture is incubated in a 2% CO2 -incubator at 37° C. for 48 hours.
3. After incubation, the number of the cells in each tube is counted with a Coulter counter (Model ZB, Coulter Electronics), and the growth inhibition percent (%) of the cells at each concentration of a test compound is calculated from the following equation: [formula] Tx: Number of the cells in a test tube containing a test compound as counted upon completion of the incubation (cells/ml)
Cx: Number of the cells in a test tube containing no test compound as counted upon completion of the incubation (cells/ml)
Co: Number of the cells in a test tube containing no test compound as counted at the initiation of the incubation (cells/ml)
4. The concentration of the test compound, which causes cell growth inhibition by 50%, is determined by the graph showing the relationship between the growth inhibition percent and the concentration of the test compound, and is defined as 50% inhibitory concentration (IC50).

[4] = day 22, * = P < 0.05 vs control
[5] = day 25, * = P < 0.05 vs control

C#Cc1c(C(N)=O)ncn1[C@@H]1O[C@H](CO)[C@@H](O)[C@H]1O [5-ethynyl-1-β-D-ribofuranosylimidazole-4-carboxamide]
IC50 (PC-3): 0.8 µg/mL (≈ 2.99 µM)
IC50 (U-2OS): 0.62 µg/mL (≈ 2.32 µM)
antitumor activity ([1]; 125 mg/kg every 4 days 3 times in total, i.v.): remarkable antitumor activity
Body weight ([1]; day 10 after implantation): 20 g
T/C (%) ([1]; day 10 after implantation): 100%
Tumor growth rate (Rt) ([1]; day 10 after implantation): 1.0
Body weight ([1]; day 14): 21 g
T/C (%) ([1]; day 14): 67%
Tumor growth rate (Rt) ([1]; day 14): 3.0
Body weight ([1]; day 17): 21 g
T/C (%) ([1]; day 17): 67%
Tumor growth rate (Rt) ([1]; day 17): 5.1
Body weight ([1]; day 22): 22 g
T/C (%) [1, 4]: 60%
Tumor growth rate (Rt) [1, 4]: 8.0
Body weight ([1]; day 25): 23 g
T/C (%) [1, 5]: 63%
Tumor growth rate (Rt) [1, 5]: 12
Body weight ([1]; day 28): 23 g
T/C (%) ([1]; day 28): 67%
Tumor growth rate (Rt) ([1]; day 28): 16
Body weight ([1]; day 31): 24 g
T/C (%) ([1]; day 31): 71%
Tumor growth rate (Rt) ([1]; day 31): 20
Body weight ([1]; day 35): 23 g
T/C (%) ([1]; day 35): 77%
Tumor growth rate (Rt) ([1]; day 35): 30
IC50 (MG-63): 0.38 µg/mL (≈ 1.42 µM)
IC50 (mouse sarcoma 180): 0.1 µg/mL (≈ 0.374 µM)
IC50 [2]: 0.16 µg/mL (≈ 0.599 µM)
IC50 (PANC-1): 0.9 µg/mL (≈ 3.37 µM)
IC50 (KU-2): < 0.1 µg/mL
IC50 [3]: 0.18 µg/mL (≈ 0.674 µM)
